{"source": "patent US20160074298A1", "about": "“POLYPHENOL/FLAVONOID COMPOSITIONS AND METHODS OF FORMULATING ORAL HYGIENIC PRODUCTS” (VIZURI HEALTH SCIENCES LLC, priority 2014, published 2016)", "key": {"[1]": {"assay": "Stability in alkaline toothpaste with sodium bicarbonate and peroxide", "assay_type": "physicochemical", "conditions": "high pH ~10-10.5; sodium bicarbonate, sodium carbonate peroxide, peroxide stabilizer", "description": "It was experimentally determined that the toothpaste formulations containing both sodium bicarbonate and sodium carbonate peroxide together with stabilizing polymer formulations had pHs of ˜10-10.5. When aglycone flavone (i.e., apigenin and luteolin) powders were added to dentifrices including sodium bicarbonate, sodium bicarbonate peroxide and a peroxide stabilizer, it was also determined that soluble flavone sodium salts were formed that were stable in these highly oxidative peroxide compositions. The presence of stable soluble alkali metal flavone salts with highly anti-oxidant and anti-inflammatory properties in an emulsion formulation was totally unanticipated since aglycone flavones are prone to oxidative decomposition. Curcumin calcium chelate was fabricated and found to be stable in high pH PeroxiCare® toothpaste. Other curcumin chelates (Boron, Zn) were also found to be stable in this formulation, but were not tested in this study. This study was designed to determine if curcumin solubilized using either a heat solubilization or chelated salt technology performed in the same way as earlier results with the flavone apigenin. Vanillin is a breakdown product of curcumin and would be present if the curcumin had substantially decomposed (the lack of vanillin is indicative of a stable delivery of curcumin)."}, "[2]": {"assay": "Saliva concentrations of chronic 1% apigenin toothpaste users (Example 12)", "assay_type": "in vivo, human", "conditions": "chronic users of PeroxiCare with 1% apigenin", "description": "Two subjects who have used PeroxiCare® with apigenin at a 1% concentration on a chronic basis provided saliva samples at:\n(§1) Saliva was collected at each time point in 50 ml Falcon tubes and immediately transferred to a freezer. All samples were transported to Tufts University within 24 hours of collection. Apigenin in saliva was quantified using high performance liquid chromatograph (HPLC) with electrochemical detection (ECD). Apigenin in 1 ml saliva was extracted using 3 ml acetonitrile. After 2 min of rigorous vortexing, the mixture was spun at 2,000 rpm for 15 min at 4° C. Supernatant was dried under N2 gas, reconstituted with mobile phase A, and analyzed for apigenin with HPLC-ECD. The limit of quantification (LOQ) for apigenin and EGCG in this assay is 15 and 25 ng/ml saliva, respectively."}, "[3]": {"assay": "Apigenin and EGCG in saliva following use of formulated toothpastes (Example 15)", "assay_type": "in vivo, human", "conditions": "formulated into a toothpaste product", "description": "This is a clinical study testing the effect of using one of 3 toothpaste products formulated with apigenin and epigallocatechin gallate (EGCG) on the retention of these flavonoids in the saliva. Briefly, 3 subjects provided saliva samples:\nEach subject brushed their teeth for 2 min using the sulcular brushing technique with ˜1.8 gm toothpaste on a new toothbrush. Each subject brushed with only one of 3 products:\nSaliva was collected at each time point in 50 mL Falcon tubes and immediately transferred to a freezer. All samples were transported to Tufts University within 8 hours of collection.\nas §1, with “Apigenin” for “Saliva was collected at each time point in 50 ml Falcon tubes and immediately transferred to a freezer. All samples were transported to Tufts University within 24 hours of collection. Apigenin”, “Apigenin and EGCG” for “Apigenin”, “1 mL” for “1 ml”"}, "[4]": {"assay": "Heat solubilization in Kolliphor RH-40", "assay_type": "physicochemical", "excerpt": "Step 1. […] Step 3. […] Step 4. […] About 5% solution was stable. Step 1. […] Step 3."}, "[5]": {"assay": "Water solubility of flavonoid classes (Table XXIII)", "assay_type": "physicochemical", "conditions": "20° C."}, "[6]": {"assay": "Colorimetric retention of EGCG in saliva after brushing (Example 14)", "assay_type": "in vivo, human", "conditions": "PeroxiCare toothpaste with 0.1 wt. % EGCG and 0.1 wt. % ascorbic acid, pH ~10.5; saliva after brushing and rinsing", "description": "A saliva sample with an EGCG containing alkaline toothpaste was obtained (1) before brushing and (2) 1 minute after brushing immediately after rinsing. The subject brushed for 2 minutes using the sulcular brushing technique with ˜1.8 gm toothpaste on a toothbrush.\nA 5 ml sample of saliva was collected 10 minutes prior to brushing. Tooth brushing was conducted for 2 minutes with 1.8 gm of toothpaste applied to the brush. One minute after brushing, the oral cavity was rinsed with 50 ml of water. Following rinsing, about 8 ml of saliva was collected. The pH of the saliva was measured. In addition, the saliva samples were further made alkaline with the addition of NaOH crystals and the color of the resulting sample noted."}, "[7]": {"assay": "Solubilization in Listerine mouth rinse as sodium salt", "assay_type": "physicochemical", "description": "100 Grams of the Listerine® Resveratrol Containing Mouth Rinse Formulation was Prepared as Follows: • 1. 98.4 grams of the Listerine® caramel colored mouth rinse was added to a 300 ml Pyrex glass beaker. […] About 0.2 grams of fine NaOH crystals were added to the mixture from Step 2 and thoroughly mixed. A uniformly caramel colored blend resulted with a measured pH of ˜10. […] The pH of the mixture from Step 3 was adjusted to a pH 6.5 by the addition of about 0.2 grams of citric acid crystals. […] • 1. 98.6 grams of the Listerine® caramel colored mouthrinse was added to a 300 ml Pyrex glass beaker. […] About 0.2 grams of fine NaOH crystals were added to the mixture from Step 2 and thoroughly mixed. A uniformly caramel colored blend resulted with a measured pH of ˜10. […] The pH of the mixture from Step 2 was adjusted to a pH 8 by the addition of about 0.2 grams of citric acid crystals."}, "[8]": {"assay": "Stability of aqueous microemulsions as a function of pH", "assay_type": "physicochemical", "conditions": "nonionic surfactants Polysorbate 80 and Cremophor/Kolliphor RH-40", "excerpt": "Stable microemulsions with apigenin and the nonionic surfactants, Polysorbate 80 and Cremophor/Kolliphor RH-40, were achieved provided a pH level of 8.0 to 8.5 was maintained. For luteolin, it as determined that a pH of 7 was required to maintain a stable aqueous microemulsion; and for resveratrol, a pH of >4.5 to 7.5."}}}
{"compound": "O=c1cc(-c2ccc(O)cc2)oc2cc(O)cc(O)c12", "note": "[Apigenin, 4′,5,7,-trihydroxyflavone]", "values": [{"measurement": "stable apigenin concentrate in PS80", "setting": "5.0 wt. % apigenin in PS80, heated approaching 300 degree C, cooled to ambient", "value": 50, "unit": "mg/mL"}, {"measurement": "stability in alkaline peroxide toothpaste (PeroxiCare)", "setting": "[1]", "value": "stable"}, {"measurement": "persistence of apigenin levels in saliva post-brushing", "setting": "[2]", "value": "at least 8 hours"}, {"measurement": "time found in saliva following toothpaste use", "setting": "[3]", "value": "at least one hour"}, {"measurement": "apigenin solubilized in RH-40", "setting": "[4]", "value": "more than 5%"}]}
{"compound": "O.Oc1cc(O)c2c(c1)O[C@H](c1ccc(O)c(O)c1)[C@@H](O)C2", "note": "[Catechin]", "values": [{"measurement": "PS80 Solubility", "setting": "20° C., thermal processing method, not the maximum solubility levels", "value": 50, "unit": "mg/mL"}, {"measurement": "Water Solubility", "setting": "[5]", "value": "~5", "unit": "mg/mL"}]}
{"compound": "O=C(O[C@@H]1Cc2c(O)cc(O)cc2O[C@@H]1c1cc(O)c(O)c(O)c1)c1cc(O)c(O)c(O)c1", "note": "[Epigallocatechin Gallate (EGCG), Epigallocatechin gallate]", "values": [{"measurement": "retention of EGCG in saliva by color change on alkalizing", "setting": "[6]", "value": "retained after brushing"}, {"measurement": "time found in saliva following toothpaste use", "setting": "[3]", "value": "at least one hour"}]}
{"compound": "O=c1cc(-c2ccc(O)c(O)c2)oc2cc(O)cc(O)c12", "note": "[luteolin, 3′,4′,5,7-tetrahydroxyflavone]", "values": [{"measurement": "luteolin concentration of transparent solution", "setting": "[7]; adjusted to pH 8", "value": 1.5, "unit": "mg/mL"}, {"measurement": "pH required to maintain a stable aqueous microemulsion", "setting": "[8]", "value": 7}, {"measurement": "stability in alkaline peroxide toothpaste (PeroxiCare)", "setting": "[1]", "value": "stable"}]}
{"compound": "Oc1ccc(C=Cc2cc(O)cc(O)c2)cc1", "note": "[resveratrol]", "values": [{"measurement": "resveratrol concentration of transparent solution", "setting": "[7]; adjusted to pH 6.5", "value": 1.2, "unit": "mg/mL"}]}
{"compound": "calcium-curcumin chelate", "values": [{"measurement": "stability in alkaline peroxide toothpaste (PeroxiCare)", "setting": "[1]", "value": "stable"}, {"measurement": "behaviour in Kolliphor RH-40", "setting": "[4]; equivalent concentration of 20% curcumin", "value": "precipitates out"}, {"measurement": "stable solution in Kolliphor RH-40", "setting": "[4]; heat solubilized", "value": "About 5%"}]}
